Earlier results as cited in patent US6875793B2, “Once-a-day controlled release sulfonylurea formulation” (Penwest Pharmaceuticals Co., priority 1997, dated 2005).
One block for each compound: values may come before it.

Experiments:
insulin secretion = settings: after an oral dose, diabetic patients

Compound: Cc1cnc(C(=O)NCCc2ccc(S(=O)(=O)NC(=O)NC3CCCCC3)cc2)cn1 [Glipizide]
time to insulinotropic response to a meal (insulin secretion): ≤ 30 min

Compound: CC(=O)c1ccc(S(=O)(=O)NC(=O)NC2CCCCC2)cc1 [Acetohexamide]
solubility in alcohol (alcohol): slightly soluble | solubility in alkali (alkali, e.g., 0.1N sodium hydroxide, dilute solutions of alkali hydroxides): soluble | solubility in water (water): practically insoluble

Compound: CCCNC(=O)NS(=O)(=O)c1ccc(Cl)cc1 [Chlorpropamide]
solubility in water at pH 6.0 (water, pH 6.0): 2.2 mg/ml | solubility in water at pH 7.3 (water, pH 7.3): practically non-soluble

More lines, now with the values ahead:

solubility in water (water): practically insoluble
Compound: CCCCNC(=O)NS(=O)(=O)c1ccc(C)cc1 [Tolbutamide]

solubility in organic solvents (organic solvents): soluble | solubility in water (water): sparingly soluble
Compound: COc1ccc(Cl)cc1C(=O)NCCc1ccc(S(=O)(=O)NC(=O)NC2CCCCC2)cc1 [Glyburide]

solubility at pH 6.0 (mean urinary pH) (pH 6.0): 27.8 mg per 100 ml | solubility in water (water): relatively insoluble
Compound: Cc1ccc(S(=O)(=O)NC(=O)NN2CCCCCC2)cc1 [Tolazamide]
